Measurements taken from patent US5279835A, “Binder-free orally administrable tablet containing 3-oxygermylpropionic acid” (Sanwa Kagaku Kenkyusho Co. Ltd., priority 1991, dated 1994).

Columns and labels:
[1] = test system: spontaneous nephritis in MRL/1 mice; test: Prevention of spontaneous nephritis in MRL/1 mice (urinary protein, blood urea nitrogen, histopathology); type: in vivo
Procedure: The effect of 3-OGP on preventing spontaneous nephritis in MRL/1 mice was investigated.
2-B) The preparation of Ex. 6 was orally administrated to test animals--MRL/1 mice of six-week old, 15 for each group--at daily doses of 0.1 mg/kg, 1.0 mg/kg and 10.0 mg/kg calculated as 3-OGP twice a week over 12 weeks. It is noted that this preparation was administrated to each animal in the form of a feed mix. […] In addition, the urea nitrogen content of blood on the day following the final administration were measured to make sero-biochemical as well as histopathological estimations of the action of the 3-OGP compositions on nephritis.
It is noted that the urinary protein was determined with Protein Pretest (made by Wako Junyaku) and the urea nitrogen content of blood was estimated with Urea Nitrogen Test B: Urease/Indophenol Method (made by Wako Junyaku).

[2] = test system: delayed type hypersensitivity reactions (DTH reactions) using sheep red blood cells (SRBCs) as antigens; test: Delayed type hypersensitivity (DTH) reaction, pododerm swelling, in Sarcoma-180 bearing ICR mice sensitized with SRBCs; type: in vivo; settings: n = 10; for Pododerm Swelling, Average: Table 1-2 (MGWC 55.5, SMG 115.5)
Procedure: The effects of 3-OGP, salts and hydroxypropylcellulose incorporated in compositions were investigated by delayed type hypersensitivity reactions (DTH reactions) using sheep red blood cells (SRBCs) as antigens.
Sarcoma-180 cells (10^6) were intraperitoneally transplanted in test animals--ICR mice (seven-week old), 10 for each group. Then, SRBCs (10^6) were injected into each animal through the vein of the tail for sensitization.
Four days later, SRBCs (2×10^8) were injected into the pododerm of the right hind leg to induce the DTH reaction and, 24 hours later, the thickness of the pododerm was measured. Note that the test drugs were administrated to the animals in the form of a feed mix 4 days before sensitization.

3-oxygermylpropionic acid [Example 3-OGP]
increase in urea nitrogen content of blood ([1]; 10 mg/kg of 3-OGP): significantly inhibited
increase in urinary protein ([1]; 10 mg/kg of 3-OGP, after 12 weeks): significantly inhibited even after 12 weeks
glomeruli with lesion severer than mediocre membranous glomerulonephritis ([1]; group treated with 3-OGP, control 60%): 20-36%
urinary protein increase ([1]; groups treated with 3-OGP, control increased after 9 to 10 weeks): any urinary protein increase was not found
Urinary Protein in % ([1]; preparation of Ex. 6, 0.1 mg/kg as 3-OGP, after 10 weeks, positive = 100 mg/dl or more (control 52.3)): 28.7%
Urinary Protein in % ([1]; preparation of Ex. 6, 0.1 mg/kg as 3-OGP, after 11 weeks (control 66.6)): 47.1%
Urinary Protein in % ([1]; preparation of Ex. 6, 0.1 mg/kg as 3-OGP, after 12 weeks (control 91.3)): 65.6%
Urinary Protein in % ([1]; preparation of Ex. 6, 1 mg/kg as 3-OGP, after 10 weeks (control 52.3)): 28.1%
Urinary Protein in % ([1]; preparation of Ex. 6, 1 mg/kg as 3-OGP, after 11 weeks (control 66.6)): 23.8%
Urinary Protein in % ([1]; preparation of Ex. 6, 1 mg/kg as 3-OGP, after 12 weeks (control 91.3)): 51.0%
Urinary Protein in % ([1]; preparation of Ex. 6, 10 mg/kg as 3-OGP, after 10 weeks (control 52.3)): 15.8%
Urinary Protein in % ([1]; preparation of Ex. 6, 10 mg/kg as 3-OGP, after 11 weeks (control 66.6)): 27.5%
Urinary Protein in % ([1]; preparation of Ex. 6, 10 mg/kg as 3-OGP, after 12 weeks (control 91.3)): 53.3%
Pododerm Swelling, Average Standard Deviation ([2]; Table 1-1, first series (MGWC 47.1, SMG 115.4), 0.1 mg/kg in feed mix): 55.1 3.3 × 0.01 mm
Pododerm Swelling, Average Standard Deviation ([2]; Table 1-1, first series (MGWC 47.1, SMG 115.4), 1 mg/kg in feed mix): 73.8 5.7 × 0.01 mm
Pododerm Swelling, Average Standard Deviation ([2]; Table 1-1, first series (MGWC 47.1, SMG 115.4), 10 mg/kg in feed mix): 70.2 5.1 × 0.01 mm
Pododerm Swelling, Average Standard Deviation ([2]; Table 1-1, second series (MGWC 48.9, SMG 117.4), 0.1 mg/kg in feed mix): 64.3 6.4 × 0.01 mm
Pododerm Swelling, Average Standard Deviation ([2]; Table 1-1, second series (MGWC 48.9, SMG 117.4), 1 mg/kg in feed mix): 72.1 5.5 × 0.01 mm
Pododerm Swelling, Average Standard Deviation ([2]; Table 1-1, second series (MGWC 48.9, SMG 117.4), 10 mg/kg in feed mix): 66.3 3.1 × 0.01 mm
Pododerm Swelling, Average ([2]; 0.1 mg/kg in feed mix): 63.5 × 0.01 mm
Pododerm Swelling, Average ([2]; 1 mg/kg in feed mix): 77.0 × 0.01 mm
Pododerm Swelling, Average ([2]; 10 mg/kg in feed mix): 73.2 × 0.01 mm
